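Compound exposure: 48 hours, 5 concentrations, 96-well plates. The concentration for 50% growth inhibition is given as GI50. The concentration for full growth arrest is given as TGI.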
Legend:
Assay in all cases: NCI-60 cell line screen, 48 h; in the data active = GI50 below about 0.43 µM; inactive = the rest
CAKI-1 renal = system: CAKI-1 renal
SN12C renal = system: SN12C renal
OVCAR-5 ovarian = system: OVCAR-5 ovarian
MALME-3M melanoma = system: MALME-3M melanoma
EKVX NSCLC = system: EKVX NSCLC
OVCAR-3 ovarian = system: OVCAR-3 ovarian
OVCAR-8 ovarian = system: OVCAR-8 ovarian
A549 NSCLC = system: A549 NSCLC
DU-145 prostate = system: DU-145 prostate
BT-549 breast = system: BT-549 breast

O=C1c2ccccc2C2(O)Oc3cccc(O)c3C12O (configuration not stated)
> 100 µM: TGI (CAKI-1 renal) | TGI (SN12C renal) | TGI (OVCAR-5 ovarian) | TGI (MALME-3M melanoma) | TGI (EKVX NSCLC) | TGI (OVCAR-3 ovarian) | TGI (OVCAR-8 ovarian) | TGI (A549 NSCLC)

Cn1cnc([N+](=O)[O-])c1Sc1nnc(C(F)(F)F)n1C
44 µM: TGI (MALME-3M melanoma)
67.8 µM: TGI (OVCAR-8 ovarian)
55.6 µM: TGI (OVCAR-3 ovarian)
> 100 µM: TGI (CAKI-1 renal) | TGI (SN12C renal) | TGI (OVCAR-5 ovarian) | TGI (EKVX NSCLC) | TGI (A549 NSCLC)

O=C1NC(=S)NC(=O)C1=Cc1ccc2ccccc2n1
> 100 µM: TGI (CAKI-1 renal) | TGI (SN12C renal) | TGI (OVCAR-5 ovarian) | TGI (MALME-3M melanoma) | TGI (EKVX NSCLC) | TGI (OVCAR-3 ovarian) | TGI (OVCAR-8 ovarian) | TGI (A549 NSCLC)

C1C[OH+]CC[OH+]CC[OH+]CC[OH+]CC[OH+]CC[OH+]1.[Cl-].[Ta+5]
inactive: GI50 (CAKI-1 renal) > 100 µM | GI50 (SN12C renal) > 100 µM | GI50 (MALME-3M melanoma) > 100 µM | GI50 (OVCAR-3 ovarian) > 100 µM | GI50 (OVCAR-8 ovarian) > 100 µM | GI50 (A549 NSCLC) > 100 µM
> 100 µM: TGI (CAKI-1 renal) | TGI (SN12C renal) | TGI (MALME-3M melanoma) | TGI (OVCAR-3 ovarian) | TGI (OVCAR-8 ovarian) | TGI (A549 NSCLC)

C=C(C(=O)OC)[C@@H]1C[C@@H](O)[C@]2(C)CC/C=C(\C)CCC[C@H](C)[C@H](O)C1O2
79.1 µM: TGI (BT-549 breast)
> 100 µM: TGI (CAKI-1 renal) | TGI (DU-145 prostate) | TGI (SN12C renal) | TGI (OVCAR-5 ovarian) | TGI (EKVX NSCLC) | TGI (OVCAR-8 ovarian) | TGI (A549 NSCLC)
92.7 µM: TGI (OVCAR-3 ovarian)
inactive: GI50 (CAKI-1 renal) 45.5 µM | GI50 (DU-145 prostate) 45.5 µM | GI50 (SN12C renal) 77.9 µM | GI50 (OVCAR-5 ovarian) > 100 µM | GI50 (EKVX NSCLC) 55.9 µM | GI50 (OVCAR-3 ovarian) 31.3 µM | GI50 (OVCAR-8 ovarian) > 100 µM | GI50 (BT-549 breast) 29.5 µM | GI50 (A549 NSCLC) 61.3 µM

O=C(/C=C/c1ccc(Cl)cc1)c1ccncc1
> 100 µM: TGI (CAKI-1 renal) | TGI (SN12C renal) | TGI (OVCAR-5 ovarian) | TGI (MALME-3M melanoma) | TGI (EKVX NSCLC) | TGI (OVCAR-3 ovarian) | TGI (OVCAR-8 ovarian) | TGI (A549 NSCLC)

C=CCNC(=S)OCCCCCCCCCC
21.8 µM: TGI (OVCAR-5 ovarian)
31.7 µM: TGI (SN12C renal)
31.2 µM: TGI (OVCAR-8 ovarian)
76.2 µM: TGI (A549 NSCLC)
33.8 µM: TGI (MALME-3M melanoma)
39.6 µM: TGI (EKVX NSCLC)
34 µM: TGI (CAKI-1 renal)

COC1(OC)c2ccccc2C2(O)c3ccccc3C(=O)C12 (configuration not stated)
> 100 µM: TGI (SN12C renal) | TGI (OVCAR-5 ovarian) | TGI (MALME-3M melanoma) | TGI (EKVX NSCLC) | TGI (OVCAR-3 ovarian) | TGI (OVCAR-8 ovarian)

CC(C)(C)C(=O)OCC(COC(=O)C(C)(C)C)[N+](=O)[O-]
> 100 µM: TGI (CAKI-1 renal) | TGI (SN12C renal) | TGI (OVCAR-5 ovarian) | TGI (MALME-3M melanoma) | TGI (EKVX NSCLC) | TGI (OVCAR-3 ovarian) | TGI (OVCAR-8 ovarian) | TGI (A549 NSCLC)

CCOC(=O)C1(C(=O)OCC)CC=C(C)CC12C(=O)Nc1ccccc12 (configuration not stated)
> 100 µM: TGI (CAKI-1 renal) | TGI (SN12C renal) | TGI (OVCAR-5 ovarian) | TGI (MALME-3M melanoma) | TGI (EKVX NSCLC) | TGI (OVCAR-3 ovarian) | TGI (OVCAR-8 ovarian) | TGI (A549 NSCLC)

COc1cccc(C2C(C#N)=C(N)Oc3cc(OC)ccc32)c1 (configuration not stated)
> 41.8 µM: TGI (SN12C renal)
1.18 µM: TGI (OVCAR-3 ovarian)
1.55 µM: TGI (DU-145 prostate)
active: GI50 (CAKI-1 renal) 0.0493 µM | GI50 (DU-145 prostate) 0.0347 µM | GI50 (SN12C renal) 0.0773 µM | GI50 (OVCAR-5 ovarian) 0.0678 µM | GI50 (OVCAR-3 ovarian) 0.0244 µM | GI50 (OVCAR-8 ovarian) 0.048 µM | GI50 (BT-549 breast) 0.106 µM | GI50 (A549 NSCLC) 0.0496 µM
> 100 µM: TGI (CAKI-1 renal) | TGI (OVCAR-5 ovarian) | TGI (OVCAR-8 ovarian) | TGI (A549 NSCLC)
17 µM: TGI (BT-549 breast)

COc1ccc(N2C(=O)C3c4[nH]c5ccccc5c4C4CCC(C(C)(C)C)CC4C3C2=O)cc1OC (configuration not stated)
> 100 µM: TGI (MALME-3M melanoma) | TGI (EKVX NSCLC)
33.9 µM: TGI (OVCAR-8 ovarian)
48.5 µM: TGI (SN12C renal)
32.6 µM: TGI (A549 NSCLC)

O=C(O/N=C1/CCCC/C1=C\c1ccccc1)c1ccc(Cl)cc1
> 100 µM: TGI (CAKI-1 renal) | TGI (SN12C renal) | TGI (OVCAR-5 ovarian) | TGI (MALME-3M melanoma) | TGI (EKVX NSCLC) | TGI (OVCAR-3 ovarian) | TGI (OVCAR-8 ovarian) | TGI (A549 NSCLC)

COC(=O)c1ccccc1N=Cc1ccc(N(CCC#N)S(=O)(=O)c2ccccc2)cc1
> 100 µM: TGI (CAKI-1 renal) | TGI (SN12C renal) | TGI (OVCAR-5 ovarian) | TGI (MALME-3M melanoma) | TGI (EKVX NSCLC) | TGI (OVCAR-3 ovarian) | TGI (OVCAR-8 ovarian) | TGI (A549 NSCLC)

CCc1nc(N)nc(N)c1-c1ccc(Cl)c(N=NN(C)C)c1
> 100 µM: TGI (DU-145 prostate) | TGI (SN12C renal) | TGI (OVCAR-5 ovarian) | TGI (OVCAR-8 ovarian)
99.5 µM: TGI (A549 NSCLC)
> 91.5 µM: TGI (OVCAR-3 ovarian)
> 95.2 µM: TGI (EKVX NSCLC)
> 94.8 µM: TGI (BT-549 breast)
> 96.9 µM: TGI (CAKI-1 renal)

COc1cc(/C=C2\CCc3ccccc3C2=O)cc(OC)c1OC
29.8 µM: TGI (CAKI-1 renal) | TGI (OVCAR-8 ovarian)
30.1 µM: TGI (OVCAR-3 ovarian)
32.9 µM: TGI (MALME-3M melanoma)
35.6 µM: TGI (SN12C renal)
34.3 µM: TGI (EKVX NSCLC)
50.1 µM: TGI (A549 NSCLC)
27.9 µM: TGI (OVCAR-5 ovarian)

COc1ccc(S(=O)(=O)N/N=C(\C)CN2C(=O)c3ccccc3C2=O)cc1
> 100 µM: TGI (CAKI-1 renal) | TGI (SN12C renal) | TGI (OVCAR-5 ovarian) | TGI (MALME-3M melanoma) | TGI (EKVX NSCLC) | TGI (OVCAR-3 ovarian) | TGI (OVCAR-8 ovarian) | TGI (A549 NSCLC)

COC(=O)C(=O)C(C#N)c1ccc(Cl)c(Cl)c1 (configuration not stated)
> 100 µM: TGI (CAKI-1 renal) | TGI (SN12C renal) | TGI (MALME-3M melanoma) | TGI (EKVX NSCLC) | TGI (OVCAR-3 ovarian) | TGI (A549 NSCLC)

CS(=O)(=O)CS(=O)CS(=O)CS(=O)CC(NC(=O)CCC(N)C(=O)O)C(=O)O (configuration not stated)
> 100 µM: TGI (CAKI-1 renal) | TGI (DU-145 prostate) | TGI (SN12C renal) | TGI (OVCAR-5 ovarian) | TGI (EKVX NSCLC) | TGI (OVCAR-3 ovarian) | TGI (OVCAR-8 ovarian) | TGI (BT-549 breast) | TGI (A549 NSCLC)

Cc1nn(C)c(=O)c2nn(-c3ccccc3)c(C)c12
> 100 µM: TGI (CAKI-1 renal) | TGI (SN12C renal) | TGI (OVCAR-5 ovarian) | TGI (MALME-3M melanoma) | TGI (EKVX NSCLC) | TGI (OVCAR-3 ovarian) | TGI (OVCAR-8 ovarian) | TGI (A549 NSCLC)

O=C1CCC(=O)C12CCc1cccc(O)c12
> 100 µM: TGI (CAKI-1 renal) | TGI (SN12C renal) | TGI (MALME-3M melanoma) | TGI (EKVX NSCLC) | TGI (OVCAR-3 ovarian) | TGI (OVCAR-8 ovarian) | TGI (A549 NSCLC)

Cc1ccc([Se][Se]c2ccc(C)cc2)cc1
> 100 µM: TGI (CAKI-1 renal) | TGI (SN12C renal) | TGI (MALME-3M melanoma) | TGI (OVCAR-3 ovarian) | TGI (OVCAR-8 ovarian) | TGI (A549 NSCLC)

O=C(Nc1ccccc1F)c1ccc(NC2=C(Cl)C(=O)N(Cc3ccccc3)C2=O)cc1
3.25 µM: TGI (CAKI-1 renal)
inactive: GI50 (CAKI-1 renal) 1.7 µM | GI50 (DU-145 prostate) 2.11 µM | GI50 (SN12C renal) 1.98 µM | GI50 (OVCAR-5 ovarian) 16.6 µM | GI50 (EKVX NSCLC) 16.6 µM | GI50 (OVCAR-3 ovarian) 1.68 µM | GI50 (OVCAR-8 ovarian) 2.84 µM | GI50 (BT-549 breast) 3.13 µM | GI50 (A549 NSCLC) 13.5 µM
7.86 µM: TGI (OVCAR-8 ovarian)
30.2 µM: TGI (OVCAR-5 ovarian) | TGI (EKVX NSCLC)
7.93 µM: TGI (SN12C renal)
3.05 µM: TGI (OVCAR-3 ovarian)
26.3 µM: TGI (A549 NSCLC)
9.62 µM: TGI (BT-549 breast)
4.34 µM: TGI (DU-145 prostate)
